According to ChEMBL document CHEMBL3217447, “Biosynthetic gene cluster and antimicrobial activity of the elfamycin antibiotic factumycin” (2012):
Values after ≈ are worked out from the molar mass of the structure shown.

Tests used:
Type in all cases: functional
Staphylococcus aureus [1] = experiment: Antibacterial activity against Staphylococcus aureus CMRSA6 assessed as growth inhibition
Escherichia coli [2] = experiment: Antibacterial activity against Escherichia coli ATCC 25922 assessed as growth inhibition
Acinetobacter baumannii [3] = experiment: Antibacterial activity against Acinetobacter baumannii mrH4 by microdilution checkerboard method in presence of tetracycline
Staphylococcus aureus [4] = experiment: Antibacterial activity against Staphylococcus aureus CMRSA7 assessed as growth inhibition
Enterococcus faecalis [5] = experiment: Antibacterial activity against Enterococcus faecalis ATCC 29212 assessed as growth inhibition
Staphylococcus aureus [6] = experiment: Antibacterial activity against Staphylococcus aureus CMRSA5 assessed as growth inhibition
Klebsiella pneumoniae [7] = experiment: Antibacterial activity against Klebsiella pneumoniae GDW917 assessed as growth inhibition
Acinetobacter baumannii [8] = experiment: Antibacterial activity against Acinetobacter baumannii B00919434 assessed as growth inhibition
Pseudomonas aeruginosa [9] = experiment: Antibacterial activity against Pseudomonas aeruginosa PAO1 assessed as growth inhibition
Pseudomonas aeruginosa [10] = experiment: Antibacterial activity against Pseudomonas aeruginosa PAO1 by microdilution checkerboard method in presence of tetracycline
Acinetobacter baumannii [11] = experiment: Antibacterial activity against Acinetobacter baumannii mrH5 assessed as growth inhibition
Klebsiella pneumoniae [12] = experiment: Antibacterial activity against Klebsiella pneumoniae by microdilution checkerboard method in presence of tetracycline
Acinetobacter baumannii [13] = experiment: Antibacterial activity against Acinetobacter baumannii mrH4 assessed as growth inhibition
Escherichia coli [14] = experiment: Antibacterial activity against Escherichia coli […] by microdilution checkerboard method in presence of tetracycline
Pseudomonas aeruginosa [15] = experiment: Antibacterial activity against Pseudomonas aeruginosa GDW788 assessed as growth inhibition
Enterococcus faecalis [16] = experiment: Antibacterial activity against Enterococcus faecalis ATCC 29212 by microdilution checkerboard method in presence of tetracycline
Enterococcus faecalis [17] = experiment: Antibacterial activity against Enterococcus faecalis ATCC 51299 assessed as growth inhibition
Acinetobacter baumannii [18] = experiment: Antibacterial activity against Acinetobacter baumannii ATCC 17978 by microdilution checkerboard method in presence of tetracycline
Acinetobacter baumannii [19] = experiment: Antibacterial activity against Acinetobacter baumannii B00636584 assessed as growth inhibition
Pseudomonas aeruginosa [20] = experiment: Antibacterial activity against Pseudomonas aeruginosa GDW789 assessed as growth inhibition
Acinetobacter baumannii [21] = experiment: Antibacterial activity against Acinetobacter baumannii ATCC 17978 assessed as growth inhibition
Pseudomonas aeruginosa [22] = experiment: Antibacterial activity against Pseudomonas aeruginosa GDW790 assessed as growth inhibition
Klebsiella pneumoniae [23] = experiment: Antibacterial activity against Klebsiella pneumoniae GDW915 assessed as growth inhibition
Acinetobacter baumannii [24] = experiment: Antibacterial activity against Acinetobacter baumannii GDW786 assessed as growth inhibition
Pseudomonas aeruginosa [25] = experiment: Antibacterial activity against Pseudomonas aeruginosa GDW787 assessed as growth inhibition
Escherichia coli [26] = experiment: Antibacterial activity against Escherichia coli GDW914 assessed as growth inhibition
Staphylococcus aureus [27] = experiment: Antibacterial activity against Staphylococcus aureus ATCC 29213 by microdilution checkerboard method in presence of tetracycline
Acinetobacter baumannii [28] = experiment: Antibacterial activity against Acinetobacter baumannii mrH3 assessed as growth inhibition
Acinetobacter baumannii [29] = experiment: Antibacterial activity against Acinetobacter baumannii GDW787 assessed as growth inhibition
Escherichia coli [30] = experiment: Antibacterial activity against Escherichia coli GDW918 assessed as growth inhibition
Escherichia coli [31] = experiment: Antibacterial activity against Escherichia coli GDW916 assessed as growth inhibition
Staphylococcus aureus [32] = experiment: Antibacterial activity against Staphylococcus aureus ATCC 29213 assessed as growth inhibition

C/C=C\C=C\[C@@H]1O[C@](O)([C@H](CC)C(=O)NC/C=C/C=C(\C)[C@@H](OC)[C@@H](C)C(O)[C@@H](O)/C=C/C=C/C=C/C=C(\C)C(=O)c2c(O)ccn(C)c2=O)C[C@H](O)C1(C)C (some centres not stated)
MIC (Staphylococcus aureus [1]): > 128 µg/mL | MIC (Escherichia coli [2]): 64 µg/mL (≈ 82.2 µM) | fractional inhibitory concentration index (FICI) (Acinetobacter baumannii [3]): 0.25 | MIC (Staphylococcus aureus [4]): > 128 µg/mL | MIC (Enterococcus faecalis [5]): 16 µg/mL (≈ 20.5 µM) | MIC (Staphylococcus aureus [6]): > 128 µg/mL | MIC (Klebsiella pneumoniae [7]): 128 µg/mL (≈ 164 µM) | MIC (Acinetobacter baumannii [8]): 8 µg/mL (≈ 10.3 µM) | MIC (Pseudomonas aeruginosa [9]): 128 µg/mL (≈ 164 µM) | fractional inhibitory concentration index (FICI) (Pseudomonas aeruginosa [10]): 2 | MIC (Acinetobacter baumannii [11]): 8 µg/mL (≈ 10.3 µM) | fractional inhibitory concentration index (FICI) (Klebsiella pneumoniae [12]): 0.5 | MIC (Acinetobacter baumannii [13]): 8 µg/mL (≈ 10.3 µM) | fractional inhibitory concentration index (FICI) (Escherichia coli [14]): 2 | MIC (Pseudomonas aeruginosa [15]): 128 µg/mL (≈ 164 µM) | fractional inhibitory concentration index (FICI) (Enterococcus faecalis [16]): 0.375 | MIC (Enterococcus faecalis [17]): 64 µg/mL (≈ 82.2 µM) | fractional inhibitory concentration index (FICI) (Acinetobacter baumannii [18]): 2 | MIC (Acinetobacter baumannii [19]): 16 µg/mL (≈ 20.5 µM) | MIC (Pseudomonas aeruginosa [20]): > 128 µg/mL | MIC (Acinetobacter baumannii [21]): 32 µg/mL (≈ 41.1 µM) | MIC (Pseudomonas aeruginosa [22]): 128 µg/mL (≈ 164 µM) | MIC (Klebsiella pneumoniae [23]): > 128 µg/mL | MIC (Acinetobacter baumannii [24]): 128 µg/mL (≈ 164 µM) | MIC (Pseudomonas aeruginosa [25]): 128 µg/mL (≈ 164 µM) | MIC (Escherichia coli [26]): 128 µg/mL (≈ 164 µM) | fractional inhibitory concentration index (FICI) (Staphylococcus aureus [27]): 2 | MIC (Acinetobacter baumannii [28]): 16 µg/mL (≈ 20.5 µM) | MIC (Acinetobacter baumannii [29]): 128 µg/mL (≈ 164 µM) | MIC (Escherichia coli [30]): 128 µg/mL (≈ 164 µM) | MIC (Escherichia coli [31]): 128 µg/mL (≈ 164 µM) | MIC (Staphylococcus aureus [32]): 32 µg/mL (≈ 41.1 µM)
